Source: patent US12624398B2, “Use of long non-coding RNAs in medulloblastoma” (THE JOHNS HOPKINS UNIVERSITY, priority 2019, dated 2026)
l = locked nucleic acid (LNA); d = 2'-deoxy (DNA)

Legend:
[1] = system: various types of cancer including MB; conditions: by inhibiting BRD4-mediated regulation of MYC; previous studies; cited from earlier work
lnc-HLX-2-7 [2] = assay: qPCR of lnc-HLX-2-7 and MYC expression in JQ1-treated mouse xenografts; type: in vivo, NOD-SCID mice; conditions: JQ1 50 mg/kg intraperitoneal on alternating days for 14 days vs DMSO
Excerpt: (§1) Quantitative real-time PCR (qRT-PCR). Total RNA was purified using the Direct-zol RNA Miniprep kit (Zymo Research, Irvine, CA). To obtain RNA from xenografts, tumor tissues were pulverized and then used for purification.
Medulloblastoma xenografts (intracranial). All mouse studies were approved and performed in accordance with the policies and regulations of the Animal Care and Use Committee of Johns Hopkins University. Intracranial MB xenografts were established by injecting D425 Med cells, MED211 cells, D425 Med cells with lnc-HLX-2-7 deleted, and MED211 cells with lnc-HLX-2-7 deleted into the cerebellums of NOD-SCID mice (Jackson Laboratory, Bar Harbor, ME). Cerebellar coordinates were −2 mm from lambda, +1 mm laterally, and 1.5 mm deep. Seven days after injection, mice were administered JQ1 (50 mg/kg) or vehicle alone (DMSO) on alternating days via intraperitoneal injection for 14 days. Tumor growth was evaluated by weekly bioluminescence imaging using an in vivo spectral imaging system (IVIS Lumina II, Xenogen, Alameda, CA).

lnc-HLX-2-7 [3] = assay: qRT-PCR of lnc-HLX-2-7 expression in MB cells; type: cell-based, human
Description: (§2) Cell culture. Cell lines were authenticated using single tandem repeat profiling. D425 Med cells were cultured in DMEM/F12 with 10% serum and 1% glutamate/penicillin/streptomycin. MED211 cells were cultured in medium composed of 30% Ham's F12/70% DMEM, 1% antibiotic antimycotic, […] B27 supplement, 5 μg/mL heparin, 20 ng/mL EGF, and 20 ng/mL FGF2. DAOY cells were cultured in DMEM with 10% serum and 1% glutamate/penicillin/streptomycin. All cells were grown in a humidified incubator at 37° C., 5% CO2. For blocking of BET bromodomain protein in D425 Med and MED211 cells, JQ1 (SML1524-5MG, Sigma Aldrich, St. Louis, MO) was added, and the medium was changed every other day.
as §1
(§3) ASO-lnc-HLX2-7. Antisense oligonucleotides (ASOs) were designed using the Integrated DNA Technologies (IDT) Antisense Design Tool (IDT, Coralville, IA). ASO knockdowns were performed with 50 nM (final concentration) locked nucleic acid (LNA) GapmeRs transfected with Lipofectamine 3000 (Thermo Fisher Scientific, Waltham, MA). All ASOs were modified with phosphorothioate (PS) linkages. The following ASOs were used: ASO targeting lnc-HLX-2-7 (ASO-lnc-HLX-2-7): +T*+G*+A*G*A*G*A*T*T*A*A*T*C*T*A*G*A*T*+T*+G*+C (SEQ ID NO:240) and control ASO targeting luciferase (ASO-Luc): +T*+C*+G*A*A*G*T*A*C*T*C*A*G*C*G*T*A*A*+G*+T*+T (SEQ ID NO:241). The PS linkages are indicated with * and LNA-modified oligonucleotides are indicated with +.
(§4) siRNA-mediated knockdown of HLX, MYC, and MY CN. siRNAs targeting HLX (catalog no. 4427037, ID: s6639) and MYC (catalog no. 4427037, ID: s9129) were purchased from Thermo Fisher Scientific. siRNAs were transfected at 20 nM for 48 h using Lipofectamine RNAiMAX (Thermo Fisher Scientific). The efficiency was determined by qRT-PCR.

MED211 cells [4] = assay: Cell proliferation, living cells counted by trypan blue staining; type: cell-based, human
Description: as §2
(§5) Cell proliferation, apoptosis, and 3D colony formation assays. Cells were plated in 96-well plates at 5×10^3 cells per well in triplicate. After 72 hours of ASO or siRNA transfection, living cells were counted by trypan blue staining. Apoptotic cells were analyzed using a GloMax luminometer (Promega, Fitchburg, WI) with conditions optimized for the Caspase-Glo 3/7 Assay. For the 3D colony formation assay, cells were seeded in 24-well plates at a density of 1×10^2 cells/well and were stained with crystal violet solution approximately 14 days later. Colony number was determined using the EVE cell counter (Nano Entek, Pleasanton, CA), and staining intensity was analyzed using ImageJ software.

D425 Med cells [5] = assay: as above; type: cell-based, human
Description: as §2, §5

MYC = assay: qRT-PCR of MYC expression in MB cells; type: cell-based, human; conditions: JQ1 100 or 300 nM, relative to DMSO-treated cells
Description: as §2, §1, §4

HLX = assay: qRT-PCR of HLX expression in MB cells; type: cell-based, human; conditions: ASO 50 nM
Description: as §1, §3, §4

MED211 cells [6] = assay: Apoptosis, Caspase-Glo 3/7 Assay; type: cell-based, human; conditions: ASO 50 nM, p<0.01
Description: as §5

D425 Med cells [7] = assay: Apoptosis, Caspase-Glo 3/7 Assay; type: cell-based, human; conditions: ASO 50 nM, p<0.01
Description: as §5

Compound	cancer cell proliferation [1]	lnc-HLX2-7 expression in vivo (lnc-HLX-2-7 [2])	lnc-HLX-2-7 expression (lnc-HLX-2-7 [3]; D425 Med cells, JQ1 100 or 300 nM, relative to DMSO-treated cells)	lnc-HLX-2-7 expression (lnc-HLX-2-7 [3]; MED211 cells, JQ1 100 or 300 nM, relative to DMSO-treated cells)	lnc-HLX2-7 expression (summary statement) (lnc-HLX-2-7 [3]; no cell line named at the place)	cell growth (viable cell numbers) (MED211 cells [4]; MED211 cells treated with JQ1, relative to DMSO (FIG. 11B), suppressed by lnc-HLX-2-7 overexpression)	cell growth (viable cell numbers) (D425 Med cells [5]; D425 Med cells treated with JQ1, relative to DMSO (FIG. 11B), suppressed by lnc-HLX-2-7 overexpression)	MYC expression (MYC; D425 Med cells)	MYC expression (MYC; MED211 cells)	lnc-HLX-2-7 expression (lnc-HLX-2-7 [3]; D425 Med cells, ASO 50 nM, compared to control ASO-luc, p<0.01)	lnc-HLX-2-7 expression (lnc-HLX-2-7 [3]; MED211 cells, ASO 50 nM, compared to control ASO-luc, p<0.01)	HLX expression (HLX; D425 Med cells)	HLX expression (HLX; MED211 cells)	MB cell growth (viable cell numbers) (MED211 cells [4]; MED211 cells, ASO 50 nM, 72 hours after transfection, p<0.01)	MB cell growth (viable cell numbers) (D425 Med cells [5]; D425 Med cells, ASO 50 nM, 72 hours after transfection, p<0.01)	apoptosis (apoptotic cell numbers) (MED211 cells [6])	apoptosis (apoptotic cell numbers) (D425 Med cells [7])
Cc1sc2c(c1C)C(c1ccc(Cl)cc1)=N[C@@H](CC(=O)OC(C)(C)C)c1nnc(C)n1-2 [JQ1]	effectively suppresses	downregulation	downregulated	downregulated	reduced	cell growth inhibition	cell growth inhibition	downregulated	downregulated								
ASO-lnc-HLX-2-7: LNA GapmeR antisense oligonucleotide with phosphorothioate linkages targeting lnc-HLX-2-7: +T*+G*+A*G*A*G*A*T*T*A*A*T*C*T*A*G*A*T*+T*+G*+C (antisense TGAGAGATTAATCTAGATTGC; sugars from the 5' end l3 d15 l3, all phosphorothioate, methylation of C not given here)										significantly decreased	significantly decreased	significantly reduced	significantly reduced	significantly suppressed	significantly suppressed	induced apoptosis	induced apoptosis
